Reference: article PMC12852919 (Scientific Reports, 2025)
Where “and” joins values, the source holds several entries; their conditions need not be identical. Identical values can stand only once. Like-named read-outs stand apart in the source and are kept apart here.

Legend:
Solubility in water = format: physicochemical
SW-872 cells = experiment: Cell cycle distribution by flow cytometry, DAPI staining; format: cell-based, human; conditions: SW-872, IC25 concentration, 18 h

SMILES: O=S(=O)([O-])c1ccc(O)c(C=NNC(=S)Nc2cccc3ccccc23)c1.[Na+] [L, sodium-4-hydroxy-3-((2-(naphthalene-1-ylcarbamothioyl)hydrazono)methyl)benzenesulfonate]
- solubility in water (Solubility in water): 4420 µg/mL and 4400 µg/mL
- solubility in water (Solubility in water; listed as L^Cu): 1600 µg/mL
- solubility in water (Solubility in water; listed as L^Fe): 2500 µg/mL
- solubility in water (Solubility in water; listed as L^Mn): 3200 µg/mL
- solubility in water (Solubility in water; listed as L^Ni): 1400 µg/mL
- solubility in water (Solubility in water; listed as L^Zn): 2400 µg/mL
- Cell cycle distribution, S (SW-872 cells): 32.94
- effect on cell cycle (SW-872 cells): cell cycle arrest in the S phase
